Measurements published in patent publication US12070467B2, “Method of treating ciliated tissue using CSA micelles” (Brigham Young University, priority 2018, dated 2024).

Assays:
C. auris CDC 382 = assay: Minimum inhibitory concentration (MIC), broth microdilution; assay type: cell-based, Candida auris; conditions: 37° C., 18-20 h
Procedure: (§1) Staphylococcus aureus (ATCC 25923) and Pseudomonas aeruginosa (ATCC 47085 (PA01)) were grown from fresh colonies in trypticase soy broth (TSB) and incubated overnight at 37° C. Fungal cultures, Candida albicans (ATCC 90028) and Candida auris (CDC 0382, 0384, 0387, and 0389), were grown overnight in sabouraud dextrose broth (SDB) or Roswell Park Memorial Institute medium (RPMI). Cultures of bacteria and fungi were centrifuged, and pellets were washed three times with phosphate buffered saline (PBS) and further resuspended in fresh PBS. Bacterial cultures were diluted in TSB and fungal cultures were diluted in SDB or RPMI to […] or 10^6 CFU/mL (optical density (OD) readings at 600 nm).
(§2) Minimum inhibitory concentrations (MICs) were measured using the broth microdilution protocol described by the Clinical and Laboratory Standards Institute. […] Aliquots (100 μL) of a prepared inoculum (10^6 CFU/mL for bacteria and […] CFU/mL for fungi) were added, and plates were incubated at 37° C. for 18-20 h. Bacterial or fungal growth was visually observed to determine the MICs. Negative and positive controls were included for each set of MIC measurements. For studies with pluronic, the surfactant was added at 4% and 5% to the initial inocula in each experiment. Measurements were performed in triplicate for all susceptibility tests.

C. auris CDC 384 = assay: as above; assay type: cell-based, Candida auris; conditions: 37° C., 18-20 h
Procedure: as §1, §2

C. auris CDC 387 = assay: as above; assay type: cell-based, Candida auris; conditions: 37° C., 18-20 h
Procedure: as §1, §2

C. auris CDC 389 = assay: as above; assay type: cell-based, Candida auris; conditions: 37° C., 18-20 h
Procedure: as §1, §2

[1] = test system: S. aureus ATCC 25923 biofilm; assay: Minimum biofilm eradication concentration (MBEC); assay type: cell-based, Staphylococcus aureus; conditions: 48 h biofilm, 24 h treatment
Procedure: as §1
(§3) Inocula (10^6 CFU/mL) of bacterial and fungal strains (P. aeruginosa, S. aureus, C. albicans, and C. auris) were incubated at 37° C. for 48 h in 1 mL of TSB or SDB in 96-well plates. Following incubation, the growth medium was gently removed, and wells were washed three times with sterile PBS. […] Wells, including well edges, were scraped thoroughly with a plastic spatula. Well contents were removed in 1 mL of neutralizing broth (Dey-Engley, Sigma-Aldrich) and placed in a sonicating water bath (Fisher Scientific FS60, 42 kHz, 100 W, Pittsburgh, PA, USA) to disrupt biofilms. […] After 24 h or 48 h of incubation at 37° C., colonies were counted and MBECs were determined. […]

[2] = test system: P. aeruginosa ATCC 47085 biofilm; assay: Minimum biofilm eradication concentration (MBEC); assay type: cell-based, Pseudomonas aeruginosa; conditions: 48 h biofilm, 24 h treatment
Procedure: as §1, §3

C. auris CDC 382 biofilm = assay: Minimum biofilm eradication concentration (MBEC); assay type: cell-based, Candida auris; conditions: 48 h biofilm, 24 h treatment
Procedure: as §1
(§4) Inocula (10^6 CFU/mL) of bacterial and fungal strains (P. aeruginosa, S. aureus, C. albicans, and C. auris) were incubated at 37° C. for 48 h in 1 mL of TSB or SDB in 96-well plates. Following incubation, the growth medium was gently removed, and wells were washed three times with sterile PBS. […] Wells, including well edges, were scraped thoroughly with a plastic spatula. Well contents were removed in 1 mL of neutralizing broth (Dey-Engley, Sigma-Aldrich) and placed in a sonicating water bath (Fisher Scientific FS60, 42 kHz, 100 W, Pittsburgh, PA, USA) to disrupt biofilms. After 15 min, the resulting samples were serially diluted, and bacterial samples were plated on TSA while fungal samples were plated on SDA. After 24 h or 48 h of incubation at 37° C., colonies were counted and MBECs were determined. The minimum biofilm eradication concentration (MBEC) was defined as the lowest concentration of antibiotic that prevented bacterial regrowth.

C. auris CDC 384 biofilm = assay: Minimum biofilm eradication concentration (MBEC); assay type: cell-based, Candida auris; conditions: 48 h biofilm, 24 h treatment
Procedure: as §1, §4

C. auris CDC 387 biofilm = assay: Minimum biofilm eradication concentration (MBEC); assay type: cell-based, Candida auris; conditions: 48 h biofilm, 24 h treatment
Procedure: as §1, §4

C. auris CDC 389 biofilm = assay: Minimum biofilm eradication concentration (MBEC); assay type: cell-based, Candida auris; conditions: 48 h biofilm, 24 h treatment
Procedure: as §1, §4

[3] = test system: C. albicans ATCC 90028 biofilm; assay: Minimum biofilm eradication concentration (MBEC); assay type: cell-based, Candida albicans; conditions: 48 h biofilm, 24 h treatment
Procedure: as §1, §3

[4] = test system: biofilms of S. aureus (ATCC 25923), P. aeruginosa (ATCC 47085), C. albicans (ATCC 90028), C. auris (CDC 384); assay: Antibiofilm colorimetric (XTT) assay, percent survival (FIG. 3); assay type: cell-based; conditions: 24 h, p<0.05 relative to controls
Procedure: Biofilm formation by selected bacterial and fungal strains was quantified by measuring metabolic activity within biofilms using 2,3-bis-(2-methoxy-4-nitro-5-sulfophenyl)-2H-tetrazolium-5-carboxanilide (XTT). Biofilms were formed in 96-well plates and incubated for 48 h at 37° C. […] After incubation, the wells were carefully washed with PBS. A solution of 10 mM menadione in 100% acetone was added to an XTT solution (0.5 mg/mL) and mixed. An aliquot of the XTT/menadione solution (100 μL) was added to each well. Each plate was then wrapped in aluminum foil and incubated for 2-3 h at 37° C. To prepare to read the optical density, aliquots of the supernatant (70 μL) were removed from each well. Using a microtiter plate reader, colorimetric changes were measured at 490 nm. […] (control). To corroborate the antibiofilm data from counting bacterial and fungal colonies, a colorimetric assay was performed to quantify biofilms remaining on surfaces after treatment. Results were normalized to untreated controls. […] Antibiofilm results determined through colorimetric (XTT) assay represented as percent survival. […]

[5] = test system: P. aeruginosa (ATCC 47085); assay: Kinetics of bactericidal activity (FIG. 4); assay type: cell-based, Pseudomonas aeruginosa; conditions: detection limit two logs
Procedure: (§5) Cultures were incubated at 37° C. At 5, 15, 30, 60, and 120 min, aliquots were removed from each well and added to neutralizing buffer to ensure that no further antibacterial activity occurred. These samples were then serially diluted and plated on TSA or SDA. Cultures were incubated at 37° C. for 24 h or 48 h, and colonies were counted and recorded.
(§6) Detection limit was two logs.

S. aureus = assay: Kinetics of bactericidal activity; assay type: cell-based, Staphylococcus aureus; conditions: CSA-131 100 μg/mL, pluronic 4%, data not shown
Procedure: as §5
FIG. 4 is a line graph comparing the kinetic antibacterial activity of CSA compositions with micelles compared to a control without CSA. Inocula of just over 10^6 CFU/mL were reduced to the detection limit within 15 min. […] Detection limit was two logs.

C. albicans = assay: Kinetics of fungicidal activity; assay type: cell-based, Candida albicans; conditions: CSA-131 100 μg/mL, pluronic 4%, data not shown
Procedure: as §5, §6

CCCCCCCCCCCCNCCC[C@@H](C)[C@H]1CC[C@H]2[C@@H]3[C@H](OCCCN)C[C@@H]4C[C@H](OCCCN)CC[C@]4(C)[C@H]3C[C@H](OCCCN)[C@]12C.Cl.Cl.Cl.Cl [CSA-131]
MIC (C. auris CDC 382): 0.5 µg/mL
MIC (C. auris CDC 384): 0.5 µg/mL
MIC (C. auris CDC 387): 0.5 µg/mL
MIC (C. auris CDC 389): 0.5 µg/mL
MBEC [1]: 100 µg/mL
MBEC [2]: 100 µg/mL
MBEC (C. auris CDC 382 biofilm): 82 µg/mL
MBEC (C. auris CDC 384 biofilm): 48 µg/mL
MBEC (C. auris CDC 387 biofilm): 64 µg/mL
MBEC (C. auris CDC 389 biofilm): 48 µg/mL
MBEC [3]: 48 µg/mL
Biofilm remaining after treatment (XTT, percent survival vs untreated control) ([4]; CSA-131 100 μg/mL alone): Significant decreases in biofilm
Biofilm remaining after treatment (XTT, percent survival vs untreated control) ([4]; CSA-131 100 μg/mL with pluronic, difference to CSA-131 alone not significant): Significant decreases in biofilm
Time for inocula of just over 106 CFU/mL to be reduced to the detection limit ([5]; CSA-131 100 μg/mL alone): ≤ 15 min
Time for inocula of just over 106 CFU/mL to be reduced to the detection limit ([5]; CSA-131 100 μg/mL with pluronic (4%)): ≤ 15 min
Difference in kinetic activity of the ceragenin alone and with pluronic (S. aureus): no significant differences
Difference in kinetic activity of the ceragenin alone and with pluronic (C. albicans): no significant differences
